Measurements as given in patent US20240358808A1, “VACCINE FOR SARS-COV-2” (FLOW PHARMA, INC., priority 2021, published 2024).

Biological target: DRB3*0202 (Homo sapiens, UniProt P01903+P79483, A212P/D57E/F66Y/L67A/R103Q/R218S/R40L/S89Y/T80R/V86D/Y55F/Y59H)
Experiment: peptide affinity binding assay (peptide-MHC binding)

DRB3*0202, sequence (P01903 26-254 limits assumed): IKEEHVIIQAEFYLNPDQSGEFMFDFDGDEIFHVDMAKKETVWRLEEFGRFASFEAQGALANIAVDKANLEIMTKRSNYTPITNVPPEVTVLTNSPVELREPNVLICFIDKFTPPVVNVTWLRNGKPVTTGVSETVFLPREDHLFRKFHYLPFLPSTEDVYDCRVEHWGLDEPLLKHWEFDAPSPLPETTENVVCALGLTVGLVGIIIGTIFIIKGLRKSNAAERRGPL
DRB3*0202, sequence (P79483 30-266 R40L/Y55F/D57E/Y59H/F66Y/L67A/T80R/V86D/S89Y/R103Q/A212P/R218S limits assumed): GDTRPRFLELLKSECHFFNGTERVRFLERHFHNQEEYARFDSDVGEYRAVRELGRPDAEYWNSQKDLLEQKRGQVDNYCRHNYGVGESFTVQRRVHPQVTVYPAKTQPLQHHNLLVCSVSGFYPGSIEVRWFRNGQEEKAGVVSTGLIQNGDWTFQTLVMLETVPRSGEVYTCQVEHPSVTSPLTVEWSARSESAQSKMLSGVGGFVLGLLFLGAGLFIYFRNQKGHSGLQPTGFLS

Question: With `CC(C)C[C@H](NC(=O)[C@@H](NC(=O)[C@H](Cc1c[nH]c2ccccc12)NC(=O)[C@H](C)NC(=O)[C@H](C)NC(=O)[C@@H](NC(=O)[C@H](Cc1ccccc1)NC(=O)[C@H](CCCCN)NC(=O)[C@H](C)N)C(C)C)[C@@H](C)O)C(=O)N[C@@H](CCCCN)C(=O)N[C@@H](C)C(=O)N[C@@H](C)C(=O)N[C@@H](C)C(=O)O` [PADRE] as the compound, how does the “peptide-MHC binding affinity before and after the addition of an infrared fluorophore ligand” value read?
Answer: essentially unchanged
